Where two headings read alike, the source gives them in different places.
Tests used:
[1] = in vivo; cited from earlier work
Adiponectin = assay: Real-time RT-PCR, Adiponectin mRNA in 3T3-L1; format: cell-based, mouse; conditions: 8 days
Excerpt: (§1) Realtime RT-PCR: Real-time reverse transcriptase polymerase chain reaction (RT-PCR) analysis was used to measure mRNA expression of genes SREBP-1, PPARγ, C/EBPα, low density lipoprotein receptor (LDLR), Adiponectin, and fatty acid synthase (FAS) under the control of β-actin. Briefly, total RNA was isolated from 3T3-L1 cells following treatment for 8 days with Trizol reagent (Invitrogen, Carlsbad, Calif., USA) according to the manufacturer's instruction. RNA was quantified using absorption of light at 260 nm, and sample purity was checked by OD 260 nm/280 nm. 0.8 μg of total RNA from each sample was used for reverse transcription reaction using the TaqMan Reverse Transcription Reagents (Applied Biosystems, Foster City, Calif., USA) according to the manufacturers' instructions. PCR was done using the SYBR green Master Mix (Applied Biosystems, Foster City, Calif., USA) according to the manufacturers' instructions. The temperature cycling conditions of amplification were as follows: an initial step of denaturation at 95° C. for 10 min, 40 cycles of denaturation at 95° C. for 30 s, annealing at 55° C. for 30 s, and elongation at 72° C. for 30 s. Realtime RT-PCR was performed using Mx3000P Realtime Thermocyclers (Statagene, La Jolla, Calif., USA). The relative mRNA levels of these genes were calculated by 2-delta delta CT method and normalized with control groups.

[2] = MTT assay, 3T3-L1 viability during differentiation with clozapine, risperidone, berberine (Example 2); format: cell-based, mouse; conditions: mouse, 3T3-L1 cells during differentiation induction; read-out: reduction of cell viability
Description: (§2) Cell culture and drug treatment: 3T3-L1 cells (American Type Culture Collection, Manassas, Va., USA) were cultured at 37° C. in a humidified 5% CO2 atmosphere and grown in a DMEM (Sigma-Aldrich, St. Louis, Mo. USA) supplemented with 10% Fetal Bovine Serum (FBS, Atlanta Biologicals Corp., Lawrenceville, Ga., USA), 100 units/ml penicillin and 100 μg/ml streptomycin. Differentiation was induced by addition of 167 nM insulin, 520 μM isobutylmethylxanthine (IBMX), and 1 μM dexamethasone for 2 days and then only with 167 nM insulin for 6 days. Detailed protocol was described as our previous report (Hu et al., Phytomedicine (2009) 16(9):864-873).
(§3) Medium was removed after differentiation and treatment for 8 days, MTT (Methylthiazolyldiphenyl—tetrazolium bromide 0.5 mg/ml, 50 μl/well) was added.

PPARγ = assay: Real-time RT-PCR, PPARγ mRNA in 3T3-L1; format: cell-based, mouse; conditions: 15 μM clozapine, 8 days
Excerpt: as §1

3T3-L1 cells [3] = assay: Oil-Red-O staining and quantification, clozapine/risperidone induced adipogenesis in 3T3-L1 (Example 2); format: cell-based, mouse; conditions: 8 days
Description: Detailed protocol was described as our previous report (Hu et al., Phytomedicine (2009) 16(9):864-873).
(§4) Oil-Red-O staining and quantification: Oil-Red-O Staining and its quantification were performed as previously reported (Liu et al., Sinica (2004) 25:1052-1057). Briefly, medium was removed and cells were washed with PBS twice, fixed with 3.7% formalin at room temperature for 30 min, then rinsed with pure water, added 60% isopropanol and incubated for 5 minutes, then moved out isopropanol and stained cells with diluted Oil-Red-O solution (Oil-Red-O store solution (3 mg/ml in pure isopropanol): water=3:2) at room temperature for 10 min. Then the diluted Oil-Red-O solution was removed and cells were washed 3 times with pure water. Images were obtained using an Olympus IX70 inverted microscope equipped for phase-contrast microscopy (Olympus, Tokyo, Japan). After staining, the cells were washed twice with 70% ethanol to remove excess stain. Stained oil droplets in the cells were dissolved in isopropanol containing 4% Nonidet-P40 (Fisher Scientific, Pittsburgh, Pa., USA) shaking in 37° C. at speed 100 rpm for 1 hour, and OD values were measured at an absorbance of 490 nm and then normalized with control group.

C/EBPα = assay: Real-time RT-PCR, C/EBPα mRNA in 3T3-L1; format: cell-based, mouse; conditions: 8 days
Excerpt: as §1

[4] = test system: low density lipoprotein receptor (LDLR); assay: Real-time RT-PCR, LDLR mRNA in 3T3-L1; format: cell-based, mouse; conditions: 8 days
Excerpt: as §1

SREBP-1 = assay: Real-time RT-PCR, SREBP-1 mRNA in 3T3-L1; format: cell-based, mouse; conditions: 8 days
Excerpt: as §1

3T3-L1 cells [5] = assay: MTT assay, 3T3-L1 viability during differentiation with clozapine, risperidone, berberine (Example 2); format: cell-based, mouse; conditions: day 8 of differentiation
Description: as §2, §3

[6] = over 10 weeks of treatment; cited from earlier work
[7] = test system: fatty acid synthase (FAS); assay: Real-time RT-PCR, FAS mRNA in 3T3-L1; format: cell-based, mouse; conditions: 50 μM risperidone, 8 days
Excerpt: as §1

3T3-L1 cells [8] = assay: Oil-Red-O staining and quantification, berberine with amentoflavone in 3T3-L1 (Example 6); format: cell-based, mouse; conditions: Mus musculus
Description: as §4, with “reported.” for “reported (Liu et al., Sinica (2004) 25:1052-1057).”, “water.” for “water. Images were obtained using an Olympus IX70 inverted microscope equipped for phase-contrast microscopy (Olympus, Tokyo, Japan).”

CC(C)CC(N(C)C)C1(c2ccc(Cl)cc2)CCC1 (stereo not drawn) [sibutramine]
effect in antipsychotic-induced weight gain [1]: no statistically significant effect

CN(C)C(=N)N=C(N)N [metformin]
effect in antipsychotic-induced weight gain [1]: no statistically significant effect

CCCCCCCCCCC[C@@H](C[C@@H]1OC(=O)[C@H]1CCCCCC)OC(=O)[C@H](CC(C)C)NC=O [orlistat]
effect in antipsychotic-induced weight gain [1]: no statistically significant effect

CN1CCN(C2=Nc3cc(Cl)ccc3Nc3ccccc32)CC1 [clozapine, reference compound]
increase of adiponectin mRNA expression vs control group (Adiponectin; 15 μM clozapine): 45.5% | cytotoxicity at 8 days, 15 μM [2]: 6.2% | cytotoxicity at 8 days, 30 μM [2]: 12.5% | increase of PPARγ mRNA expression vs control group (PPARγ): 68.3% | induced adipogenesis vs vehicle treated group (3T3-L1 cells [3]; 15 μM clozapine): 37.4% | induced adipogenesis vs vehicle treated group (3T3-L1 cells [3]; 30 μM clozapine): 25.2% | increase of C/EBPα mRNA expression vs control group (C/EBPα; 15 μM clozapine): 45.7% | increase of LDLR mRNA expression vs control group ([4]; 15 μM clozapine): 63.1% | increase of SREBP-1 mRNA expression vs control group (SREBP-1; 15 μM clozapine): 27.6%

Cc1nc2n(c(=O)c1CCN1CCC(c3noc4cc(F)ccc34)CC1)CCCC2 [risperidone, reference compound]
increase of adiponectin mRNA expression vs control group (Adiponectin; 50 μM risperidone): 63.8% | enhancement of cell viability (3T3-L1 cells [5]; printed 'for 15 μM clozapine treatment'): 14% | enhancement of cell viability (3T3-L1 cells [5]; printed 'for 30 μM clozapine treatment'): 16.8% | induced adipogenesis vs vehicle treated group (3T3-L1 cells [3]; 25 μM risperidone): 14.1% | induced adipogenesis vs vehicle treated group (3T3-L1 cells [3]; 50 μM risperidone): 26.5% | increase of C/EBPα mRNA expression vs control group (C/EBPα; 50 μM risperidone): 48.8% | increase of LDLR mRNA expression vs control group ([4]; 50 μM risperidone): 61.5% | increase of SREBP-1 mRNA expression vs control group (SREBP-1; 50 μM risperidone): 133.5% | weight gain [6]: ~2 kg | increase of FAS mRNA expression vs control group [7]: 34.4%

O=c1cc(-c2ccc(O)c(-c3c(O)cc(O)c4c(=O)cc(-c5ccc(O)cc5)oc34)c2)oc2cc(O)cc(O)c12 [amentoflavone, reference compound]
inhibition at 25 µM (3T3-L1 cells [8]; 3T3-L1, read-out: enhancement of the inhibitory effects of berberine, 25 μM amentoflavone added to 4 μM berberine, with 15 μM clozapine): 10.1% | inhibition at 25 µM (3T3-L1 cells [8]; 3T3-L1, read-out: enhancement of the inhibitory effects of berberine, 25 μM amentoflavone added to 8 μM berberine, with 15 μM clozapine): 7.8%

Source: patent US20110281852A1 (priority 2010, published 2011)
